Experimental data: patent publication US11236106B2, “Cycloalkane-1,3-diamine derivative” (Daiichi Sankyo Company, Limited, priority 2018, dated 2022)
Structures can show the parent of a compound that is named as a salt. Where two headings read alike, the source gives them in different places.

Target: T1, menin and MLL (menin, Flag tagged; biotinylated MLL1 peptide 1-46aa) (Homo sapiens, UniProt O00255)
T1 sequence (O00255 1-610): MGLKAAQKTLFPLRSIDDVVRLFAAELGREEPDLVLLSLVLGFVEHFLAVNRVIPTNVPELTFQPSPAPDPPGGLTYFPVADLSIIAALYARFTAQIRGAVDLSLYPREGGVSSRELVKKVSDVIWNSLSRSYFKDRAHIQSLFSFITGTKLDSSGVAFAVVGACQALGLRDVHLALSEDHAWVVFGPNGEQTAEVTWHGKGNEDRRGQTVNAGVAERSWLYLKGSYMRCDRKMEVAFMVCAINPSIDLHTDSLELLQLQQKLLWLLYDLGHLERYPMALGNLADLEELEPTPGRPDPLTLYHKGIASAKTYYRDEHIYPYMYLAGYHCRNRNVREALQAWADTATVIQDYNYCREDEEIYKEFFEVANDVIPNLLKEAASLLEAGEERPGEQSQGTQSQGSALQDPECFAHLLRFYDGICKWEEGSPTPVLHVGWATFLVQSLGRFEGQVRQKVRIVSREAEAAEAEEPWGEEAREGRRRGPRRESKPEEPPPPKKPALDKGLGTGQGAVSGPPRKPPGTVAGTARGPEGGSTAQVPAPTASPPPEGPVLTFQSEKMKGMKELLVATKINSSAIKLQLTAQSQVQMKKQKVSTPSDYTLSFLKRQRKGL
Assay: biochemical

[1] = cell free IC50 (nM), 1 nM menin, 10 nM biotinylated MLL1 peptide, AlphaLISA

Procedure: Then, the fluorescence signal by AlphaLISA (registered trademark, PerkinElmer Co., Ltd.) was measured using a plate reader (PerkinElmer Co., Ltd., EnVisionXcite).

Compound	IC50 [1]	IC50
O=C1CCC(c2ccc(CN[C@H]3CCC[C@@H](Nc4ncnc5sc(CC(F)(F)F)cc45)C3)cc2)N1 (mixture of isomers) [Example 39, 5-[4-({[(1S,3R)-3-{[6-(2,2,2-trifluoroethyl)thieno[2,3-d]pyrimidin-4-yl[amino}cyclohexyl]amino}methyl)phenyl]pyrrolidin-2-one hydrochloride (diastereomer mixture)]	2070 nM	
CN(c1ncnc2sc(CC(F)(F)F)cc12)[C@@H]1CC[C@H](NCc2ccc(S(=O)(=O)N3CCCC(O)C3)cc2)C1 (mixture of isomers) [Example 57, l-[4-({[(1S,3R)-3-{methyl[6-(2,2,2trifluoroethyl)thieno[2,3-d]pyrimidin-4-yl]amino}cyclopentyl]amino}methyl)benzene-1-sulfonyl]piperidin-3-ol hydrochloride (diastereomer mixture)]	61.2 nM	
COc1cc(-c2ccc(CN[C@H]3C[C@@H](O)[C@@H](N(C)c4ncnc5sc(CC(F)(F)F)cc45)C3)cc2)nnc1OC1CCCOC1 (mixture of isomers) [Example 108, (1R,2S,4R)-4-{[(4-{5-methoxy-6-[(oxan-3-yl)oxy]pyridazin-3-yl}phenyl)methyl]amino}-2-{methyl[6-(2,2,2-trifluoroethyl)thieno[2,3-d]pyrimidin-4-yl]amino}cyclopentan-1-ol hydrochloride]		1.3 nM
COc1nc(N(C)[C@H]2C[C@@H](NCC3CC=C(c4cc(OC)c(OC)nn4)CC3)C[C@H]2O)c2cc(CC(F)(F)F)sc2n1 (mixture of isomers) [Example 125, (1R,2S,4R)-4-({[4-(5,6-dimethoxypyridazin-3-yl)cyclohex-3-en-1-yl]methyl}amino)-2-{[2-methoxy-6-(2,2,2-trifluoroethyl)thieno[2,3-d]pyrimidin-4-yl](methyl)amino}cyclopentan-1-ol hydrochloride]		1.5 nM
COc1cncc(-c2ccc(CN[C@H]3C[C@@H](O)C[C@@H](Nc4ncnc5sc(CC(F)(F)F)cc45)C3)cc2)c1 (single isomer, unassigned) [Example 15A, Hydrochloride]	21.6 nM	
COc1cncc(-c2ccc(CN[C@@H]3C[C@H](O)C[C@H](Nc4ncnc5sc(CC(F)(F)F)cc45)C3)cc2)c1 (single isomer, unassigned) [Example 15B, Hydrochloride]	403 nM	
COc1cncc(-c2ccc(CN[C@H]3C[C@@H](Nc4ncnc5sc(CC(F)(F)F)cc45)C[C@@H](C(=O)N(C)C)C3)cc2)c1 (single isomer, unassigned) [Example 17A, Hydrochloride]	2260 nM	
COc1cncc(-c2ccc(CN[C@@H]3C[C@H](Nc4ncnc5sc(CC(F)(F)F)cc45)C[C@H](C(=O)N(C)C)C3)cc2)c1 (single isomer, unassigned) [Example 17B, Hydrochloride]	13.3 nM	
N#Cc1cc2cc(CN[C@@H]3CC[C@@H](Nc4ncnc5sc(CC(F)(F)F)cc45)C3)ccc2[nH]1 [Example 1, 5-({[(1R,3R)-3-{[6-(2,2,2-trifluoroethyl)thieno[2,3-d]pyrimidin-4-yl]amino}cyclopentyl]amino}methyl)-1H-indole-2-carbonitrile Hydrochloride]	494 nM	
Cc1c(CN[C@H]2CC[C@@H](N(C)c3ncnc4sc(CC(F)(F)F)cc34)C2)ccc2c1cc(C#N)n2Cc1cn[nH]c1 [Example 2, 4-methyl-5-({[(1S,3R)-3-{methyl[6-(2,2,2-trifluoroethyl)thieno[2,3-d]pyrimidin-4-yl]amino}cyclopentyl]amino}methyl)-1-[(1H-pyrazol-4-yl)methyl]-1H-indole-2-carbonitrile Hydrochloride]	12.8 nM	
CN(c1ncnc2sc(CC(F)(F)F)nc12)[C@@H]1CC[C@H](NCc2ccc3[nH]c(C#N)cc3c2)C1 [Example 3, 5-({[(1S,3R)-3-{methyl[2-(2,2,2-trifluoroethyl)[1,3]thiazolo[5,4-d]pyrimidin-7-yl]amino}cyclopentyl]amino}methyl)-1H-indole-2-carbonitrile Hydrochloride]	81.8 nM	
CN(c1ncnc2cc(CC(F)(F)F)sc12)[C@@H]1CC[C@H](NCc2ccc3[nH]c(C#N)cc3c2)C1 [Example 4, 5-({[(1S,3R)-3-{methyl[6-(2,2,2-trifluoroethyl)thieno[3,2-d]pyrimidin-4-yl]amino}cyclopentyl]amino}methyl)-1H-indole-2-carbonitrile]	172 nM	
CN(c1ncnc2ccc(CC(F)(F)F)cc12)[C@@H]1CC[C@H](NCc2ccc(O)cc2)C1 [Example 5, 4-({[(1S,3R)-3-{methyl[6-(2,2,2-trifluoroethyl)quinazolin-4-yl]amino}cyclopentyl]amino}methyl)phenol Hydrochloride]	856 nM	
C=CC(=O)NCCCNC(=O)c1ccc(CN[C@H]2CC[C@@H](N(C)c3ncnc4sc(CC(F)(F)F)cc34)C2)cc1 [Example 6, 4-({[(1S,3R)-3-{methyl[6-(2,2,2-trifluoroethyl)thieno[2,3-d]pyrimidin-4-yl]amino}cyclopentyl]amino}methyl)-N-{3-[(prop-2-enoyl)amino]propyl}benzamide Hydrochloride]	81.9 nM	
CN(c1ncnc2sc(CC(F)(F)F)cc12)[C@@H]1CC[C@H](NCc2ccc(NCc3ccccc3)cc2)C1 [Example 7, (1R,3S)—N^3-{[4-(benzylamino)phenyl]methyl}-N^1-methyl-N^1-[6-(2,2,2-trifluoroethyl)thieno[2,3-d]pyrimidin-4-yl]cyclopentane-1,3-diamine Hydrochloride]	151 nM	
COc1cncc(Nc2ccc(CN[C@H]3CC[C@@H](N(C)c4ncnc5sc(CC(F)(F)F)cc45)C3)cc2)c1 [Example 8, (1R,3S)—N^3-({4-[(5-methoxypyridin-3-yl)amino]phenyl}methyl)-N^1-methyl-N^1-[6-(2,2,2-trifluoroethyl)thieno[2,3-d]pyrimidin-4-yl]cyclopentane-1,3-diamine Hydrochloride]	8.8 nM	
COc1cncc(-c2ccc(CN[C@H]3CC[C@@H](N(C)c4ncnc5sc(CC6CC6)cc45)C3)cc2)c1 [Example 9, (1R,3S)—N^1-[6-(cyclopropylmethyl)thieno[2,3-d]pyrimidin-4-yl]-N^3-{[4-(5-methoxypyridin-3-yl)phenyl]methyl}-N^1-methylcyclopentane-1,3-diamine Hydrochloride]	22.2 nM	
O=C(NC1COC1)c1ccc(CN[C@H]2CCC[C@@H](Nc3ncnc4sc(CC(F)(F)F)cc34)C2)cc1 [Example 10, N-(oxetan-3-yl)-4-({[(1S,3R)-3-{[6-(2,2,2-trifluoroethyl)thieno[2,3-d]pyrimidin-4-yl]amino}cyclohexyl]amino}methyl)benzamide Hydrochloride]	199 nM	
CN(c1ncnc2sc(CC(F)(F)F)cc12)[C@@H]1CC[C@H](NCc2ccc(-c3ccc(=O)[nH]c3)cc2)C1 [Example 11, 5-[4-({[(1S,3R)-3-{methyl[6-(2,2,2-trifluoroethyl)thieno[2,3-d]pyrimidin-4-yl]amino}cyclopentyl]amino}methyl)phenyl]pyridin-2(1H)-one Hydrochloride]	63.9 nM	
CN(c1ncnc2sc(CC(F)(F)F)cc12)[C@@H]1CC[C@H](NCc2ccc(Nc3cnn(C)c3)cc2)C1 [Example 12, (1R,3S)—N^1-methyl-N^3-({4-[(1-methyl-1H-pyrazol-4-yl)amino]phenyl}methyl)-N^1-[6-(2,2,2-trifluoroethyl)thieno[2,3-d]pyrimidin-4-yl]cyclopentane-1,3-diamine]	33.8 nM	
CN(c1ncnc2sc(CC(F)(F)F)cc12)[C@@H]1CC[C@H](NCc2ccc(-c3ccc(-c4ccc(Cl)nc4)nc3)cc2)C1 [Example 13, (1R,3S)—N^3-{[4-(6′-chloro[2,3′-bipyridine]-5-yl)phenyl]methyl}-N^1-methyl-N^1-[6-(2,2,2-trifluoroethyl)thieno[2,3-d]pyrimidin-4-yl]cyclopentane-1,3-diamine]	7.6 nM	
CN(c1ncnc2sc(CC(F)(F)F)cc12)[C@@H]1CC[C@H](NCc2ccc(-c3cnc4ccoc4c3)cc2)C1 [Example 14, (1R,3S)—N^3-{[4-(furo[3,2-b]pyridin-6-yl)phenyl]methyl}-N^1-methyl-N^1-[6-(2,2,2-trifluoroethyl)thieno[2,3-d]pyrimidin-4-yl]cyclopentane-1,3-diamine Hydrochloride]	27.4 nM	
COc1cncc(-c2ccc(CN(C)[C@@H]3C[C@H](O)C[C@H](Nc4ncnc5sc(CC(F)(F)F)cc45)C3)cc2)c1 [Example 16, (1R,3S,5R)-3-[{[4-(5-methoxypyridin-3-yl)phenyl]methyl}(methyl)amino]-5-{[6-(2,2,2-trifluoroethyl)thieno[2,3-d]pyrimidin-4-yl]amino}cyclohexan-1-ol]	1870 nM	
COc1cncc(-c2ccc(CN[C@@H]3C[C@H](N(C)c4ncnc5sc(CC(F)(F)F)cc45)[C@H](O)[C@@H]3O)cc2)c1 [Example 20A, (1S,2R,3R,5S)-3-({[4-(5-methoxypyridin-3-yl)phenyl]methyl}amino)-5-{methyl[6-(2,2,2-trifluoroethyl)thieno[2,3-d]pyrimidin-4-yl]amino}cyclopentane-1,2-diol Hydrochloride]	3.9 nM	
